According to ChEMBL document CHEMBL1143695, “Synthesis and biological studies of novel 2-aminoalkylethers as potential antiarrhythmic agents for the conversion of atrial fibrillation” (J Med Chem, 2007):
Blank lines part the entries; values can stand above or below the compound they belong to. The source made the active and inactive calls. The rule behind the calls is not given here.

Columns and labels:
in vivo = details: CD1, mouse, iv
Description: Toxicity in intravenously dosed CD1 mouse

[1] = molecular target: Potassium voltage-gated channel subfamily A member 5 (Homo sapiens, UniProt P22460); assay: Inhibition of human potassium channel Kv1.5 by patch-clamp method
[2] = molecular target: T1, A-type voltage-gated potassium channel KCND2 (Rattus norvegicus, UniProt Q63881); assay: Inhibition of rat potassium channel Kv4.2 by patch-clamp method
T1 sequence (Q63881 whole entry): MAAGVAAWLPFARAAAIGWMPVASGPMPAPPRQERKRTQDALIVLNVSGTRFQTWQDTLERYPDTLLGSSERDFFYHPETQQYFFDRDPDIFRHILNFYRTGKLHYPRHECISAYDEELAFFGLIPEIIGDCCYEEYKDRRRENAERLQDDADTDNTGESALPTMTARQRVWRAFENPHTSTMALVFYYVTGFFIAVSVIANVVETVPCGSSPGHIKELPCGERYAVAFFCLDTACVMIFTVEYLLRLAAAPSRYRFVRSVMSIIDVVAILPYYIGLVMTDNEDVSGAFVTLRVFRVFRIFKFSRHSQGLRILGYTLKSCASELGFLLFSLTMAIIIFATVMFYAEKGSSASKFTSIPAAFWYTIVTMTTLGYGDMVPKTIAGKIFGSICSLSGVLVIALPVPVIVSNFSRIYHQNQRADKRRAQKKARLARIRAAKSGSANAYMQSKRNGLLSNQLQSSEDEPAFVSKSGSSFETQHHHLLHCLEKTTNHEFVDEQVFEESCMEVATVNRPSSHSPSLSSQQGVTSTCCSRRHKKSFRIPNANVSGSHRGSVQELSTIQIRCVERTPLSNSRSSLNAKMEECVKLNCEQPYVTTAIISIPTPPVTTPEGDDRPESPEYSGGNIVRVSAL

Rattus norvegicus [3] = assay: CNS toxicity in iv dosed Sprague-Dawley rat assessed as cumulative convulsion dose; assay type: organism-based; details: in vivo
Canis familiaris [4] = species: Canis familiaris; assay: Effect on Mongrel dog sterile pericarditis atrial fibrillation model assessed as dose for conversion of atrial fibrillation to normal sinus rhythm; assay type: functional, Canis lupus familiaris, Cardiac atrium
Canis familiaris [5] = species: Canis familiaris; assay: Reduction of heart rate in Mongrel dog vagal atrial fibrillation model; assay type: functional, organism-based; details: Canis lupus familiaris
Canis familiaris [6] = species: Canis familiaris; assay: Effect on Mongrel dog sterile pericarditis atrial fibrillation model assessed as conversion of atrial fibrillation to normal sinus rhythm; assay type: functional, organism-based; details: Canis lupus familiaris; Cardiac atrium
[7] = Clearance in Wistar rat at 12 mg/kg. iv; assay type: ADME, organism-based; design: dose 12 mg/kg, route intravenous; details: in vivo
[8] = molecular target: Sodium channel protein type 5 subunit alpha (Homo sapiens, UniProt Q14524)
Description: Inhibition of human heart sodium channel Nav1.5 by patch-clamp method

Canis familiaris [9] = species: Canis familiaris; assay: Reduction of blood pressure in Mongrel dog vagal atrial fibrillation model; assay type: functional, organism-based; details: Canis lupus familiaris
[10] = Half life in Wistar rat at 12 mg/kg. iv; assay type: ADME, organism-based; design: dose 12 mg/kg, route intravenous; details: in vivo
[11] = Oral bioavailability in Wistar rat at 24 mg/kg. […]; assay type: ADME, organism-based; details: in vivo
Rattus norvegicus [12] = assay: Antiarrhythmic activity in intravenously dosed Sprague-Dawley rat with ischemia-induced arrhythmia; assay type: functional, Heart
[13] = molecular target: T2, Potassium voltage-gated channel subfamily B member 1 (Rattus norvegicus, UniProt P15387); assay: Inhibition of rat potassium channel Kv2.1 by patch-clamp method
T2 sequence (P15387 whole entry): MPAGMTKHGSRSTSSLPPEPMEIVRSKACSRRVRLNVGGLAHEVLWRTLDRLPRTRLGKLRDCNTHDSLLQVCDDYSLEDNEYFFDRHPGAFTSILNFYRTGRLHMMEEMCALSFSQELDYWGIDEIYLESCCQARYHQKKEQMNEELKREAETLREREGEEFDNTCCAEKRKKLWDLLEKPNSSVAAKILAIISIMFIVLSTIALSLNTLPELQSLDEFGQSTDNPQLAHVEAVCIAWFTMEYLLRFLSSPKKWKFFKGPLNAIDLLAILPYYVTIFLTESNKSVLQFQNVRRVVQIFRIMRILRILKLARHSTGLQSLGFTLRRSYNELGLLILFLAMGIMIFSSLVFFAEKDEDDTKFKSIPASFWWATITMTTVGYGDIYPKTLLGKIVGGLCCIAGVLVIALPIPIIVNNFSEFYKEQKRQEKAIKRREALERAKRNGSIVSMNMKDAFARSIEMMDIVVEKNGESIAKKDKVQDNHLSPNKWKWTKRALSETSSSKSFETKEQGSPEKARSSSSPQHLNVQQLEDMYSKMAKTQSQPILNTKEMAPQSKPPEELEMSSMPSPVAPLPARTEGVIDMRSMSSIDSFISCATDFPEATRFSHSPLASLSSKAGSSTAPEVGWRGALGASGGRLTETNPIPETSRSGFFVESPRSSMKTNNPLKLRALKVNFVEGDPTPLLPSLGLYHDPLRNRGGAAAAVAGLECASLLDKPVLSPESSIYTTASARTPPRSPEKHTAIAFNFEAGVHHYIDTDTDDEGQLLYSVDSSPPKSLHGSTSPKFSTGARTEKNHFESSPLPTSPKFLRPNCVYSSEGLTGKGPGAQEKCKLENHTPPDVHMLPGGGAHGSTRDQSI

[14] = Volume of distribution at steady state in Wistar rat at 12 mg/kg. iv; assay type: ADME, organism-based; design: dose 12 mg/kg, route intravenous; details: in vivo, read-out: Vdss
Rattus norvegicus [15] = assay: (§1) Volume of distribution at steady state in Wistar rat at 17 mg/kg. iv; assay type: ADME, organism-based; design: dose 17 mg/kg, route intravenous; details: in vivo
Rattus norvegicus [16] = assay: (§2) Oral bioavailability in Wistar rat at 34 mg/kg. […]; assay type: ADME, organism-based; details: in vivo
Rattus norvegicus [17] = assay: (§3) Half life in Wistar rat at 17 mg/kg. iv; assay type: ADME, organism-based; design: dose 17 mg/kg, route intravenous; details: in vivo
Rattus norvegicus [18] = assay: Hemodynamic effect in intravenously dosed Sprague-Dawley rat with ischemia-induced arrhythmia assessed as dose producing 10% reduction in systemic blood pressure; assay type: functional
[19] = Clearance in Wistar rat at 17 mg/kg. iv; assay type: ADME, organism-based; design: dose 17 mg/kg, route intravenous; details: in vivo
[20] = as §1; assay type: ADME, organism-based; design: dose 17 mg/kg, route intravenous; details: Wistar, in vivo, read-out: Vdss
[21] = as §3; assay type: ADME, organism-based; design: dose 17 mg/kg, route intravenous; details: Wistar, in vivo
Canis familiaris [22] = species: Canis familiaris; assay: Effect on Mongrel dog vagal atrial fibrillation model assessed as dose for conversion of atrial fibrillation to normal sinus rhythm; assay type: functional, Canis lupus familiaris, Cardiac atrium
Canis familiaris [23] = species: Canis familiaris; assay: Effect on Mongrel dog vagal atrial fibrillation model assessed as conversion of atrial fibrillation to normal sinus rhythm; assay type: functional, organism-based; details: Canis lupus familiaris; Cardiac atrium
[24] = as §2; assay type: ADME, organism-based; details: Wistar, in vivo, oral

Sequence of Potassium voltage-gated channel subfamily A member 5 (P22460 whole entry): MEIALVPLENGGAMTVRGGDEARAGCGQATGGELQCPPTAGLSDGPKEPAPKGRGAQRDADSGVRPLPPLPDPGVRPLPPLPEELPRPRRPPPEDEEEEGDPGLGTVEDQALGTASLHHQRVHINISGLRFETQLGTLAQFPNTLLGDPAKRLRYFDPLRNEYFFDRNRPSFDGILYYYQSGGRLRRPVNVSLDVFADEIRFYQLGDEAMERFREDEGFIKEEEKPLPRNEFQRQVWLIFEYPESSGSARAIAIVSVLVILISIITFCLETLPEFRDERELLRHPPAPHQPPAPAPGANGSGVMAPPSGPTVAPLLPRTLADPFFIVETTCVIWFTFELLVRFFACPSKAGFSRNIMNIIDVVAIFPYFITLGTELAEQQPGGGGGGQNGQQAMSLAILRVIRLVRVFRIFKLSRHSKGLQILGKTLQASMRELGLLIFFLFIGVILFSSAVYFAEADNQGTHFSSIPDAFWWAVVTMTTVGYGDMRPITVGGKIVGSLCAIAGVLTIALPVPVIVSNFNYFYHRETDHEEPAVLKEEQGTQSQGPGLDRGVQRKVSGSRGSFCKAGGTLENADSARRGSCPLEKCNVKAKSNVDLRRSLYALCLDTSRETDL
Sequence of Sodium channel protein type 5 subunit alpha (Q14524 whole entry): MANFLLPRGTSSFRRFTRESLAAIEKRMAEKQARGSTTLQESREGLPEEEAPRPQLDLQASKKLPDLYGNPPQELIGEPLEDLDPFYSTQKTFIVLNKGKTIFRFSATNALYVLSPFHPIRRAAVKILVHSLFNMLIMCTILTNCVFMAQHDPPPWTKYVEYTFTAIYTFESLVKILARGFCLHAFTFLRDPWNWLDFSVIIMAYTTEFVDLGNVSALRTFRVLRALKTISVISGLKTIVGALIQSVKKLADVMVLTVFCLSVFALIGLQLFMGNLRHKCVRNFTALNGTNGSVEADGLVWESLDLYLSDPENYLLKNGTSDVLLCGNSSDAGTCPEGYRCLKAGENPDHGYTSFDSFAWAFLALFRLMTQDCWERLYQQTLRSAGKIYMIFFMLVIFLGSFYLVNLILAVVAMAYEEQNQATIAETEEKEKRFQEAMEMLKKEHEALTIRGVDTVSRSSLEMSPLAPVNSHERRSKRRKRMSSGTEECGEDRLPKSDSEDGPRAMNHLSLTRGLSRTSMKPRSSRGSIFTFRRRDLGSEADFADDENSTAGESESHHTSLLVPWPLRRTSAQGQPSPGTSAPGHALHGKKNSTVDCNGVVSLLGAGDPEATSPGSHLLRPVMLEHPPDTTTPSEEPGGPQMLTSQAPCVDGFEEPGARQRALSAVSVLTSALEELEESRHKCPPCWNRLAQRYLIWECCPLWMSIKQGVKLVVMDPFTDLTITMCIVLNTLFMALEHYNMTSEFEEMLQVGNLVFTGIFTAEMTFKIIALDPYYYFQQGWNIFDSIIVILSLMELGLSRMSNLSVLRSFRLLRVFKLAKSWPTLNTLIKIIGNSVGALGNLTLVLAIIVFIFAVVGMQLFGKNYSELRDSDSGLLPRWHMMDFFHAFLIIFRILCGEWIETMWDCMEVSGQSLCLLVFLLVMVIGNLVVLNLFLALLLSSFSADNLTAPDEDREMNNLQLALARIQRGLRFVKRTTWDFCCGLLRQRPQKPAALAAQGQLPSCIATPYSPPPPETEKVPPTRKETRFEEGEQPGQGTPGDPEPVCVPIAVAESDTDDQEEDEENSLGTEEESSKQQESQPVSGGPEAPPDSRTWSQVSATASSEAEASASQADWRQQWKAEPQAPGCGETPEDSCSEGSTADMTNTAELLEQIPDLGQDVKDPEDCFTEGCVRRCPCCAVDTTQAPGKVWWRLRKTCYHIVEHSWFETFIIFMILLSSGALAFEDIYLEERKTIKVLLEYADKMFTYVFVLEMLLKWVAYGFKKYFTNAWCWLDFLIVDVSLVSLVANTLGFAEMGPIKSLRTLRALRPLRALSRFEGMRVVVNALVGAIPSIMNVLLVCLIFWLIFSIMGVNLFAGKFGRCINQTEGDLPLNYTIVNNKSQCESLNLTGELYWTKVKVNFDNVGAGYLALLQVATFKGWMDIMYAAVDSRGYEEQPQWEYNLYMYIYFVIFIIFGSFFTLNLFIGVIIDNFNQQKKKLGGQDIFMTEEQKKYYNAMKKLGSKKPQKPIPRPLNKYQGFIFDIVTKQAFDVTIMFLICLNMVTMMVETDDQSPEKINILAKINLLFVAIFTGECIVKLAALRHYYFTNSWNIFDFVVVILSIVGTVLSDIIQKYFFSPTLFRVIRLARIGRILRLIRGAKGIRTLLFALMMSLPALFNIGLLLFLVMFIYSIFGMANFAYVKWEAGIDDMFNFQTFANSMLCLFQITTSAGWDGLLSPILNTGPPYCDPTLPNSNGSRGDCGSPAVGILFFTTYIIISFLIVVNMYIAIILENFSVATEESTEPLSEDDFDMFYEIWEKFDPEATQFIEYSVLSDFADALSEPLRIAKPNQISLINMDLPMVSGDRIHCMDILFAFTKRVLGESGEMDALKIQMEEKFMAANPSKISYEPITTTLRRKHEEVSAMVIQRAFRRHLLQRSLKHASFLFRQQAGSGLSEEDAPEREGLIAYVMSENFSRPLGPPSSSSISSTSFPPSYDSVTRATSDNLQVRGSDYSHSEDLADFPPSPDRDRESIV

Compound: O=C(NCC1CCCCN1)c1cc(OCC(F)(F)F)ccc1OCC(F)(F)F (stereo not drawn) [FLECAINIDE]
LD50 (in vivo): 20 µmol/kg
IC50 [1]: 51 µM
IC50 [2]: 10.1 µM
Activity (Rattus norvegicus [3]): 113 µmol/kg

Compound: c1ccc2c(CCO[C@@H]3CCCC[C@H]3N3CCOCC3)cccc2c1
Activity (Canis familiaris [4]): 8 µmol/kg
Activity (Canis familiaris [5]): inactive
Activity (Canis familiaris [6]): Active
LD50 (in vivo): 42 µmol/kg
clearance [7]: 50.1 mL/min/kg
IC50 [8]: 4 µM
IC50 [1]: 1.3 µM
Activity (Canis familiaris [9]): inactive
half-life [10]: 6.5 h
IC50 [2]: 17 µM
Activity (Rattus norvegicus [3]): 93 µmol/kg
bioavailability [11]: 4%
ED50 (Rattus norvegicus [12]): 0.8 µmol/kg/min
IC50 [13]: 3.2 µM
Vd [14]: 29 L/kg

Compound: O=C1CCN([C@@H]2CCCC[C@H]2OCCc2cccc3ccccc23)C1 (stereo in doubt; 40)
IC50 [8]: 11 µM
IC50 [1]: 5.9 µM
IC50 [2]: 11 µM
Activity (Rattus norvegicus [3]): 193 µmol/kg
ED50 (Rattus norvegicus [12]): 1.2 µmol/kg/min
Vdss (Rattus norvegicus [15]): 8.3 L/kg
F (Rattus norvegicus [16]): 6%
t1/2 (Rattus norvegicus [17]): 3.8 h
IC50 [13]: 6 µM

Compound: CCCCc1oc2ccccc2c1C(=O)c1cc(I)c(OCCN(CC)CC)c(I)c1 [AMIODARONE]
Activity (Rattus norvegicus [18]): 4 µmol/kg/min

Compound: O=C1CCN([C@@H]2CCCC[C@H]2OCCc2cccc3ccccc23)C1 (stereo in doubt; 26) [listing 1 of 2 here]
LD50 (in vivo): 227 µmol/kg
clearance [19]: 38.7 mL/min/kg
IC50 [8]: 25 µM
IC50 [1]: 4.3 µM
IC50 [2]: 8.9 µM
Activity (Rattus norvegicus [3]): 225 µmol/kg
ED50 (Rattus norvegicus [12]): 0.4 µmol/kg/min
Vd [20]: 4.5 L/kg
F (Rattus norvegicus [16]): 58%
half-life [21]: 6.3 h
IC50 [13]: 2.8 µM

Compound: Clc1ccc(CCO[C@@H]2CCCC[C@H]2N2CCOCC2)cc1Cl
Activity (Canis familiaris [4]): 10 µmol/kg
Activity (Canis familiaris [5]): inactive
Activity (Canis familiaris [6]): Active
LD50 (in vivo): 228 µmol/kg
clearance [7]: 48.5 mL/min/kg
IC50 [8]: 15 µM
IC50 [1]: 3.6 µM
Activity (Canis familiaris [9]): inactive
half-life [10]: 4.5 h
IC50 [2]: 11 µM
Activity (Rattus norvegicus [3]): 118 µmol/kg
Activity (Canis familiaris [22]): 17 µmol/kg
bioavailability [11]: 7%
ED50 (Rattus norvegicus [12]): 1.5 µmol/kg/min
Activity (Canis familiaris [23]): Active
IC50 [13]: 2.4 µM
Vd [14]: 19 L/kg

clearance [19]: 30.2 mL/min/kg
IC50 [1]: 7.7 µM
IC50 [2]: 9 µM
Vd [20]: 2.6 L/kg
bioavailability [24]: 32%
half-life [21]: 1 h
IC50 [13]: 8 µM
Compound: O=C1CCN([C@H]2CCCC[C@@H]2OCCc2cccc3ccccc23)C1
IC50 [8]: 13 µM
Activity (Rattus norvegicus [3]): 150 µmol/kg
ED50 (Rattus norvegicus [12]): 1.9 µmol/kg/min

IC50 [1]: 2190 µM
IC50 [2]: 1210 µM
Compound: CCN(CC)CC(=O)Nc1c(C)cccc1C [LIDOCAINE]
Activity (Rattus norvegicus [3]): 190 µmol/kg
ED50 (Rattus norvegicus [12]): 4.5 µmol/kg/min

Compound: O=C1CCN([C@@H]2CCCC[C@H]2OCCc2cccc3ccccc23)C1 (stereo in doubt; 26) [listing 2 of 2 here]
Activity (Canis familiaris [5]): inactive
Activity (Canis familiaris [9]): inactive
